Data published in ChEMBL document CHEMBL5625211, “Neutral sphingomyelinase 2 inhibitors based on the pyrazolo[1,5-a]pyrimidin-3-amine scaffold” (Eur J Med Chem, 2023).

How the values were obtained:
[1] = Drug concentration in Wistar rat brain at 10 mg/kg, po measured after 30 mins by LC-MS/MS method; assay type: ADME, organism-based; settings: in vivo, 0.5 h
[2] = Drug concentration in Wistar rat plasma at 10 mg/kg, po measured after 30 mins by LC-MS/MS method; assay type: ADME, organism-based

With `CN(C)c1cnn2ccc(N3CCOCC3)nc12` the Drug uptake [1] was “Active” and the concentration at 0.5 h [2] was greater than 2000 nM.
